Reference: US8815811B2, “Peptides and methods for their preparation and use” (Eli Lilly and Company, priority 2010, dated 2014)
Where no end group is shown, it is not given here. [ ]: non-standard residue; d: D form. 1Nal = N[C@@H](Cc1cccc2ccccc12)C(=O)O; Aib = CC(C)(N)C(=O)O

Tests used:
[1] = tested on: diet-induced obese Long Evans rats; assay: Effects on food intake, body weight, body composition and plasma lipids in DIO Long Evans rats; type: in vivo
Procedure: Four to five months old male diet-induced obese Long Evans rats are used. Animals are individually housed in a temperature-controlled (24° C.) facility with a 12 hour light/dark cycle (lights on 22:00), and have free access to food (diet TD95217) and water. Animals are acclimated to the facility for at least 2 weeks. On day 0, body composition is determined by QNMR and rats are randomized to respective groups (n=6/group) based on body weight, % fat, and % lean mass. Compound is administered by subcutaneous injection on days 1, 4, 8, 11, and 15. […] After CO2 euthanasia, blood samples are taken by cardiac stick for analysis of exposure determination.

[2] = molecular target: T1, hGlucR (Homo sapiens, UniProt P47871); assay: Glucagon receptor (hGlucR) binding assay (SPA, I-125 glucagon); settings: hGlucR 293HEK membranes
T1 construct: expressed in transfected cells; host or cells: 293HEK, Hygromycin-selected, phD expression plasmid
Procedure: The hGlucR cDNA is subcloned into the expression plasmid phD (Trans-activated expression of fully gamma-carboxylated recombinant human protein C, an antithrombotic factor. Grinnell, B. W., et. al., Bio/Technology 5: 1189-1192 (1987)). This plasmid DNA is transfected into 293HEK cells and selected with 200 μg/mL Hygromycin.
Crude plasma membranes are prepared using cells from suspension culture. The cells are lysed on ice in hypotonic buffer containing 25 mM Tris HCl, pH 7.5, 1 mM MgCl2, DNAse1, 20 μ/mL, and Roche Complete™ Inhibitors without EDTA. The cell suspension is homogenized with a glass dounce homogenizer using a Teflon® pestle for 25 strokes. The homogenate is centrifuged at 4° C. at 1800×g for 15 minutes. The supernatant is collected and the pellet is resuspended in hypotonic buffer and rehomogenized. The mixture is centrifuged at 1800×g for 15 minutes. The second supernatant is combined with the first supernatant. […]
The binding buffer contains 25 mM 4-(2-hydroxyethyl)-1-piperazineethanesulfonic acid (HEPES), pH 7.4, 2.5 mM CaCl2, 1 mM MgCl2, 0.1% fatty acid free BSA, 0.003% Tween20, and Roche Complete™ Inhibitors without EDTA. […] Plates are read with a PerkinElmer Life and Analytical Sciences Trilux MicroBeta® scintillation counter after 12 hours of settling time at room temperature.
Results are calculated as a percent of specific I-125-glucagon binding in the presence of compound. […]

[3] = tested on: DIO mice; assay: Oral glucose tolerance test after 2-week treatment in DIO mice; type: in vivo
Procedure: Fifty-six hours after the last injection of compound in the DIO study above the animals were subjected to an oral glucose tolerance test. In short, mice were fasted for 16 hours prior to the start of the glucose tolerance test. At time 0, animals are given 2 g/kg dextrose by oral gavage. Blood is collected by tail bleeding taken 0, 15, 30, 60 and 120 minutes after glucose challenge. Glucose concentration is measured by glucometer.

[4] = tested on: ovariectomized (OvX) Sprague Dawley rats; assay: Skeletal effects in ovariectomized (OvX) Sprague Dawley rats; type: in vivo
Procedure: Example 4 was evaluated in 6 months old, ovariectomized (OvX; see Endocrinology 144: 2008-2015), Sprague Dawley rats. Doses of 0, 2.9, 9.7, or 29 nmol/kg were given to the rats as daily subcutaneous injections starting 9 days post surgery. […] It should be noted that loss in body weight (8% in this study) can directly affect bone mass. Bone strength is load dependent and losing weight results in a lower load on bones that carry weight and as a consequence less impact is observed on skeletal parameters of bones that carry weight, i.e. the femur cortical bone. Statistical significances were evaluated by a one-way ANOVA followed by a Dunnett's test.

[5] = tested on: Normal male Wistar rats; assay: Intravenous glucose tolerance test in normal rats; type: in vivo; settings: IVGTT; for insulin AUC: 0 to 30 min
Procedure: Effects on Blood Glucose Excursion During an Intravenous Glucose Tolerance Test in Normal Rats
Normal male Wistar rats (225-250 g) are used in the study. Animals are randomized into groups based on fed body weight and blood glucose. Animals are injected with vehicle or peptide analog (dose 3-400 μg peptide content/kg) 16 hours prior to the start of the test. Food is removed at the time of injection. Prior to the assay the animals are put under anesthesia, Phenobarbital 65 mg/kg i.p., and two catheters are inserted, one in the jugular vein and the other in the carotid artery. At time 0, animals are given 0.5 g glucose/kg through the venous catheter. Blood is collected from the carotid artery at time 0 (pre glucose), 2, 4, 6, 10, 20 and 30 minutes after glucose challenge. Glucose concentration is measured by glucometer. Insulin is measured by Mesoscale®. Efficacy is measured as the increase in total area under the insulin curve (=integrated plasma insulin values from t+0 to 30 min) as well as the area under the glucose curve which is a measure of the glucose excursion following the intravenous glucose challenge.

[6] = OvX rats, 2.9 nmol/kg daily sc, 35 days
[7] = OvX rats, 9.7 nmol/kg daily sc, 35 days
[8] = OvX rats, 29 nmol/kg daily sc, 35 days

T1 sequence (P47871 26-477): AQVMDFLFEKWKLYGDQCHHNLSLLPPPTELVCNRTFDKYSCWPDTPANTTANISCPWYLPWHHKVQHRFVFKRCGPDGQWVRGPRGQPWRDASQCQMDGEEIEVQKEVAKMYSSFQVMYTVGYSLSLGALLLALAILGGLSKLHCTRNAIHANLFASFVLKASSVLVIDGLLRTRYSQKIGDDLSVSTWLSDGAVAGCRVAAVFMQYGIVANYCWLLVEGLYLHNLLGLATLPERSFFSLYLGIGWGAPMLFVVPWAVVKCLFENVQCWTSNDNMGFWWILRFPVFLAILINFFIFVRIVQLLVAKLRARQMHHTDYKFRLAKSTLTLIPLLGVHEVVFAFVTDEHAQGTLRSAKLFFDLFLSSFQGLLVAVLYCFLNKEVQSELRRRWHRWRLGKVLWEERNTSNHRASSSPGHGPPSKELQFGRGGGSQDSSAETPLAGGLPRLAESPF

Question: “Aib^2, Aib^13, Nal^22, Aib^29, Cys^43(PEG20K), Cys^44 (PEG20K)-GIP (Y[Aib]EGTFTSDYSI[Aib]LDKIAQRA[1Nal]VQWLIA[Aib]KGKKQEWKHQITQC(PEG 20 kDa)C(PEG 20 kDa)-NH2) [Example 4]” was tested. Which “total cholesterol (plasma)” value ([1]; 10 nmol/Kg) did it give?
Answer: 110 mg/dL

Question: And the “triglycerides (plasma)” value ([1]; 10 nmol/Kg)?
Answer: 488.7 mg/dL

Question: What about the “free fatty acids (plasma)” value ([1]; 30 nmol/Kg) of the same substance?
Answer: 0.82 mEq/L

Question: What about the “total cholesterol (plasma)” value ([1]; 30 nmol/Kg) of the same substance?
Answer: 104 mg/dL

Question: And the “triglycerides (plasma)” value ([1]; 30 nmol/Kg)?
Answer: 212.2 mg/dL

Question: What about the fat mass reduced ([1]; 30 nmol/Kg over 16 days) of the same substance?
Answer: 1.8%

Question: And the lean mass increased ([1]; 30 nmol/Kg over 16 days)?
Answer: 0.4%

Question: And the fat mass reduced ([1]; 100 nmol/Kg over 16 days)?
Answer: 3.2%

Question: What about the lean mass increased ([1]; 100 nmol/Kg over 16 days) of the same substance?
Answer: 1.8%

Question: And the “changes in body weight and body composition compared to vehicle-treated DIO rats” value ([1]; over 16 days)?
Answer: increasing the percentage of lean mass and decreasing the percentage of fat mass

Question: And the “amount of free fatty acids” value ([1]; versus vehicle)?
Answer: increased

Question: And the “amounts of plasma lipids, including triglycerides and total cholesterol” value ([1]; versus vehicle)?
Answer: lowered

Question: And the Ki [2]?
Answer: > 7.49 µM

Question: And the “glucose excursion following an oral glucose load” value ([3]; DIO mice, summary of Tables 7a and 7b)?
Answer: significantly reduced

Question: What about the “Glucose AUC, MEAN” value ([3]; Table 7a, OGTT 2 g/kg dextrose, 56 h after last injection, 10 nmol/Kg) of the same substance?
Answer: 11725 mg·min/dL

Question: And the “Glucose AUC, MEAN” value ([3]; Table 7a, OGTT, 30 nmol/Kg)?
Answer: 10907 mg·min/dL

Question: And the “Glucose AUC, MEAN” value ([3]; Table 7b, OGTT, 10 nmol/Kg)?
Answer: 13719 mg·min/dL

Question: What about the “Bone mineral density (BMD) of lumbar vertebrae, MEAN” value (“Bone mineral density (BMD)” below) [4, 6] of the same substance?
Answer: 557 mg/mL

Question: What about the “Changes in bone mineral content (BMC) of lumbar vertebrae, Bone mineral density (mg), MEAN” value (from here on “Changes in bone mineral content (BMC)”) [4, 6] of the same substance?
Answer: 9.75 mg

Question: And the “Bone mineral density (BMD)” value [4, 7]?
Answer: 558 mg/mL

Question: And the “Changes in bone mineral content (BMC)” value [4, 7]?
Answer: 9.98 mg

Question: And the “Bone mineral density (BMD)” value [4, 8]?
Answer: 588 mg/mL

Question: What about the “Changes in bone mineral content (BMC)” value [4, 8] of the same substance?
Answer: 10.49 mg

Question: What about the “reduction of food consumption and body weight” value ([4]; OvX rats, 2.9-29 nmol/kg daily, 35 days, dose responsive) of the same substance?
Answer: up to 8%

Question: And the “OvX induced loss in bone mineral content and bone mineral density in lumbar vertebrae” value ([4]; OvX rats, 35 days)?
Answer: dose-dependently prevented

Question: What about the “adverse effect on bone mineral density or bone mineral content in the femur and lumbar vertebra” value ([4]; OvX rats, 35 days) of the same substance?
Answer: did not adversely affect

Question: What about the “effect in mid femur cortical bone (BMC, BMD)” value ([4]; OvX rats, 35 days) of the same substance?
Answer: no effect

Question: What about the fat mass ([4]; OvX rats, 35 days) of the same substance?
Answer: decreased fat mass

Question: What about the lean mass ([4]; OvX rats, 35 days) of the same substance?
Answer: no change

Question: What about the “non-fasted serum glucose and triglycerides” value ([4]; OvX rats, 35 days) of the same substance?
Answer: decreased

Question: And the “BMC and BMD in OvX rats” value ([4]; summary of Tables 8 and 9)?
Answer: improves

Question: What about the “insulin AUC and glucose AUC compared to vehicle-treated rats” value [5] of the same substance?
Answer: increased insulin AUC and decreased glucose AUC

Question: What about the “glucose AUC” value ([5]; 50 μg/Kg) of the same substance?
Answer: 7730 mg·min/dL

Question: And the “insulin AUC” value ([5]; 50 μg/Kg 16 hours before test)?
Answer: 150 ng·min/mL

Question: What about the “glucose AUC” value ([5]; 200 μg/Kg) of the same substance?
Answer: 7420 mg·min/dL

Question: What about the “insulin AUC” value ([5]; 200 μg/Kg 16 hours before test) of the same substance?
Answer: 161 ng·min/mL
